In patent US9649285B2, “Treatment of medium-chain acyl-CoA dehydrogenase deficiency” (UNIVERSITY OF PITTSBURGH—OF THE COMMONWEALTH SYSTEM OF …, priority 2012, dated 2017):
Substitutions are numbered along the chain they refer to.

Key:
[1] = target: T1, partially purified recombinant human LCAD (Homo sapiens, UniProt P28330); test: ETF fluorescence reduction assay with LCAD; format: biochemical
T1 construct: made in house
T1 sequence (P28330 31-430): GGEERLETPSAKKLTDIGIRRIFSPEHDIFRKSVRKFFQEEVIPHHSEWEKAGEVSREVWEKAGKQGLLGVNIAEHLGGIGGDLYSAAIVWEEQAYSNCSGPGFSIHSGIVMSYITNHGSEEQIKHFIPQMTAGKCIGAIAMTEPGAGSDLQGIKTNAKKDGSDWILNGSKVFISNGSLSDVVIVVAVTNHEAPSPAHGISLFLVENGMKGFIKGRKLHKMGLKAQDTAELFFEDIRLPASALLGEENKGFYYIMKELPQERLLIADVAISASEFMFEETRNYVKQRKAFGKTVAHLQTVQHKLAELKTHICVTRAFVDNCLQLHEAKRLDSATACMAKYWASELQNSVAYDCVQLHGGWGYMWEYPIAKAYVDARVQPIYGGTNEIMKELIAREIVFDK

[2] = test system: extract from fibroblast cells deficient in MCAD (GM07844, homozygous K304E); test: ETF fluorescence reduction assay of cell extract, MCAD deficient fibroblasts; format: biochemical, human; conditions: similar amounts of extract
Experimental: (§1) Fibroblast Cell Culture and Extract Preparation.
(§2) Wild type and MCAD deficient cells (homozygous for the K304E mutation) with the designation GM085401 and GM07844, respectively, were obtained form Coriell Institute for Medical Research, Camden, N.J. Cells were cultured in DMEM medium supplemented with glutamine and ampicillin and streptomycin, and 20% fetal bovine serum. Cells were harvested from a T175 flask by sonication with a buffer consisting of 50 mM Tris buffer and 10 mM EDTA, pH 8.0. The cell debris was removed by centrifugation and the cell free extract was assayed for protein and enzyme activity as described below.
(§3) ETF Fluorescence Reduction Assay.
(§4) The ETF reduction assay was performed using a Jasco FP-6300 spectrofluorometer (Easton, Md.) with a cuvette holder heated with circulating water at 32° C. The assay was otherwise performed as described (22), at the indicated substrate concentrations. The enzyme was diluted 1200-fold into a buffer containing 50 mM Tris, pH 8.0, 5 mM EDTA and 50% glycerol, and […] were used for each assay. The ETF concentration in the reaction mixture was 2 μM. Spectra Manager 2 software (Jasco Inc) was used to collect data and calculate reaction rate and Microsoft Excel was used to calculate the kinetic parameters.

MCAD K304E mutant = target: T2, MCAD K304E mutant (Homo sapiens, UniProt P11310, K329E); conditions: reported in ref. 27; cited from earlier work
T2 sequence (P11310 26-421 K329E): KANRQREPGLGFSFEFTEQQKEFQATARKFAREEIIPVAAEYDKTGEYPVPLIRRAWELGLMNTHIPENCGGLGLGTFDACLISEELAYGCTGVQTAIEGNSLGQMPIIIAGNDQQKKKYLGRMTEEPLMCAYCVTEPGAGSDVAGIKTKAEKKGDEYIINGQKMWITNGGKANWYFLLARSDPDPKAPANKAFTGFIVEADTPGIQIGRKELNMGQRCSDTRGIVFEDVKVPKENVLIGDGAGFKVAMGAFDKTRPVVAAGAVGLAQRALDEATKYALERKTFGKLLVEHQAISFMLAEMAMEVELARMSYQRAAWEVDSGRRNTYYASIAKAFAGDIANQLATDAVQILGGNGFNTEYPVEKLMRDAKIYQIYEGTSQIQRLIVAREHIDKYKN

[3] = test system: extracts from wild type fibroblast cells (GM085401); test: ETF fluorescence reduction assay of cell extract, wild type fibroblasts; format: biochemical, human; conditions: 30 μM substrate
Experimental: as §1, §2, §3, §4

[4] = target: T3, purified recombinant human MCAD (Homo sapiens, UniProt P11310); test: Formation of the charge transfer complex (reductive half-reaction), absorbance at 447/570 nm; format: binding; conditions: Stockell plot, substrate:subunit ratio 1:1; enzyme 25.2 μM; anaerobic, pH 8.0; read-out: apparent dissociation constant (KD app)
T3 construct: made in house; host or cells: E. coli JM105, co-expressed with GroEL/GroES
T3 sequence (P11310 26-421): T2 sequence (P11310 26-421 K329E) with E304K
Experimental: (§5) Purification of Recombinant Human MCAD.
(§6) Expression and purification of recombinant human MCAD was performed as previously described for isovaleryl-CoA dehydrogenase with minor modifications (18). E. coli JM105 cells (Amersham Biosciences Corp; Piscataway, N.J.) containing the human MCAD high expression vector pKeMCAD (19) and a GroEL/GroES expression plasmid were grown overnight in a 200-ml LB broth pre-culture that was used to inoculate 4×2-L cultures in 2-YT broth. The cells were left to grow overnight at 37° C. with shaking and MCAD expression was induced the next morning using IPTG at a final concentration of 0.5 mM for 3 hrs. Cells were harvested by centrifugation and resuspended at 4° C. in 2:1 weight to volume of 100 mM potassium phosphate pH 8.0, 150 mM EDTA. Cells were then lysed by sonication on ice. […]
Formation of the charge transfer ternary complex was monitored by observing the increase in absorbance at the 570 nm area, concomitant with the decrease of absorbance at 447 nm area, of the purified MCAD in 120 mM potassium phosphate spectrum under anaerobic conditions using a Jasco V-650 Spectrophotometer. […] Ten seconds of equilibration time were allowed after mixing and the sample was scanned for UV/Visible light absorbance at 250 to 800 nm. […] The “apparent” productive-binding constant (Kd app) was calculated with the following equation: […]

Purified ACAD9 = target: T4, Purified ACAD9 (Homo sapiens, UniProt Q9H845); test: ETF fluorescence reduction assay with ACAD9; format: biochemical
T4 construct: made in house
T4 sequence (Q9H845 38-621): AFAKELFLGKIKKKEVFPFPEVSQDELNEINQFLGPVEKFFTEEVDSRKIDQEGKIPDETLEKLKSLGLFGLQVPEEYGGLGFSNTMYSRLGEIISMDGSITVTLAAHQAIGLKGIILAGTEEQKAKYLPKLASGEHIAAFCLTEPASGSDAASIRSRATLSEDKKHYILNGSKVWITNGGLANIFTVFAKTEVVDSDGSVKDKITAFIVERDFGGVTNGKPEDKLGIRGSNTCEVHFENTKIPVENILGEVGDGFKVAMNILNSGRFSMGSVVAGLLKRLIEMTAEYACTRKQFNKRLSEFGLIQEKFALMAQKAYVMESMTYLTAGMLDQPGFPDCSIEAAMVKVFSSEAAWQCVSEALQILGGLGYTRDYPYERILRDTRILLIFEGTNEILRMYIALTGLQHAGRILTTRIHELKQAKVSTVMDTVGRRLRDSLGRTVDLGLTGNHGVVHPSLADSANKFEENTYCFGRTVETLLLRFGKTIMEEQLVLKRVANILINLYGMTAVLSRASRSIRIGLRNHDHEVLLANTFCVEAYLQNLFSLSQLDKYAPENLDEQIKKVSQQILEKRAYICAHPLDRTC

Purified SCAD = target: T5, Purified SCAD (Homo sapiens, UniProt P16219); test: ETF fluorescence reduction assay with SCAD; format: biochemical
T5 construct: made in house
T5 sequence (P16219 25-412): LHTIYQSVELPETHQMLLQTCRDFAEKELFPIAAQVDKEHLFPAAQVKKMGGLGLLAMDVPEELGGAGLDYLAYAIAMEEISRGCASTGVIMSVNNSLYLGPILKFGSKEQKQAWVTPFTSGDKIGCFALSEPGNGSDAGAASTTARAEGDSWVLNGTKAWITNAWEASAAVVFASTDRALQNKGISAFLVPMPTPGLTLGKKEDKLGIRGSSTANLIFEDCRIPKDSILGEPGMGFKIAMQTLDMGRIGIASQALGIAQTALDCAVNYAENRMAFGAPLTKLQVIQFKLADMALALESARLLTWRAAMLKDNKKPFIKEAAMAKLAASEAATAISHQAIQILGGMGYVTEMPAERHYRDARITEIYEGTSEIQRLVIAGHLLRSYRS
Experimental: as §6, with “ice. Including high amounts of EDTA in the cell lysis buffer can protect residues with groups, e.g., cysteine thiols and methionine sulfide groups, vulnerable to modification by oxygen reactive species generated during sonication cell suspension. This was effective in improving enzyme preparations resulting higher specific activity and consistent kinetic behavior. Cellular debris was removed by centrifugation first at 250,000×g for 60 minutes each. The final supernatant was dialyzed for 4 hours with vigorous stirring in 50 mM potassium phosphate pH 8.0, at 4° C.” for “ice.”
(§7) ETF Fluorescence Reduction Assay. […]

recombinant human MCAD = target: T6, recombinant human MCAD (Homo sapiens, UniProt P11310); test: ETF fluorescence reduction assay with purified MCAD (oxidative half-reaction); format: biochemical
T6 construct: made in house; host or cells: E. coli JM105, co-expressed with GroEL/GroES
T6 sequence (P11310 26-421): T2 sequence (P11310 26-421 K329E) with E304K
Experimental: as §5
as §6, with “ice. Including high amounts of EDTA in the cell lysis buffer can protect residues with groups, e.g., cysteine thiols and methionine sulfide groups, vulnerable to modification by oxygen reactive species generated during sonication cell suspension. This was effective in improving enzyme preparations resulting higher specific activity and consistent kinetic behavior. Cellular debris was removed by centrifugation first at 250,000×g for 60 minutes each.” for “ice.”
as §7

Row | SMILES | activity of LCAD with substrate [1] | Kd [4] [µM] | activity of ACAD9 with substrate (Purified ACAD9) | activity of SCAD with substrate (Purified SCAD) | activity of MCAD with substrate (recombinant human MCAD) | Enzyme specific activity [2] | thermal stability of the MCAD K304E mutant (MCAD K304E mutant) | Enzyme specific activity [3]
1 | CC(C)CCCC(C)C(=O)SCCNC(=O)CCNC(=O)[C@H](O)C(C)(C)COP(=O)(O)OP(=O)(O)OC[C@H]1O[C@@H](n2cnc3c(N)ncnc32)[C@H](O)[C@@H]1OP(=O)(O)O (stereo partly drawn) [2,6-dimethylheptanoyl-CoA] | active |  |  |  |  |  |  | 
2 | CCCCCCCC(=O)SCCNC(=O)CCNC(=O)[C@H](O)C(C)(C)COP(=O)(O)OP(=O)(O)OC[C@H]1O[C@@H](n2cnc3c(N)ncnc32)[C@H](O)[C@@H]1OP(=O)(O)O [octanoyl-CoA] |  | 0.12 |  |  |  | No activity | provide thermal stability | 4.01 (±1.34) nmoles ETF reduced x min^−1 x mg^−1
3 | CCCCCCCCCCCCCCCC(=O)SCCNC(=O)CCNC(=O)[C@H](O)C(C)(C)COP(=O)(O)OP(=O)(O)OC[C@H]1O[C@@H](n2cnc3c(N)ncnc32)[C@H](O)[C@@H]1OP(=O)(O)O [palmitoyl-CoA] |  |  |  |  |  | 3.91 (±1.34) nmoles ETF reduced x min^−1 x mg^−1 |  | 9.10 (±2.13) nmoles ETF reduced x min^−1 x mg^−1

Now from value to compound, other results behind:

Row | activity of LCAD with substrate [1] | Kd [4] [µM] | activity of ACAD9 with substrate (Purified ACAD9) | activity of SCAD with substrate (Purified SCAD) | activity of MCAD with substrate (recombinant human MCAD) | SMILES | Enzyme specific activity [2] | thermal stability of the MCAD K304E mutant (MCAD K304E mutant) | Enzyme specific activity [3]
4 | active |  |  |  |  | CCCCCCCCCCCC(=O)SCCNC(=O)CCNC(=O)[C@H](O)C(C)(C)COP(=O)(O)OP(=O)(O)OC[C@H]1O[C@@H](n2cnc3c(N)ncnc32)[C@H](O)[C@@H]1OP(=O)(O)O [C12-CoA] |  |  | 
5 | not active | 2.16 | no activity | no activity | no activity | CC(C)(COP(=O)(O)OP(=O)(O)OC[C@H]1O[C@@H](n2cnc3c(N)ncnc32)[C@H](O)[C@@H]1OP(=O)(O)O)[C@@H](O)C(=O)NCCC(=O)NCCSC(=O)CCCc1ccccc1 [phenylbutyryl-CoA] | No activity |  | 3.41 (±0.53) nmoles ETF reduced x min^−1 x mg^−1
